From patent US9453062B2, “Glucose dependent insulinotropic polypeptide analogs, pharmaceutical compositions and use thereof” (Beijing Hanmi Pharmaceutical Co., Ltd., priority 2011, dated 2016)
Where a SMILES comes first, the peptide text is derived from it. Bridges are numbered along the chain shown (N, C = ends). [ ]: non-standard residue; d: D form. The star is where a group is joined. Palmitoyl = CCCCCCCCCCCCCCCC(=O)*; Aib = CC(C)(N)C(=O)O

Columns and labels:
[1] = target: T1, hGLP-1R (Homo sapiens, UniProt P43220); assay: hGLP-1R-mediated cAMP induction assay in CHO cell line; type: cell-based; settings: Table 3; for EC50: CHO hGLP1R cells; for GLP-1 Receptor Relative Potency: against native GLP-1;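 as to all read-outs here: CHO cells expressing human GLP-1R, treated 30 min at 37 °C, intracellular cAMP measured by competitive fluorescent immunoassay and converted via a cAMP standard curve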
T1 construct: expressed in transfected cells; host or cells: CHO

[2] = target: T2, hGIPR (Homo sapiens, UniProt P48546); assay: hGIPR-mediated cAMP induction assay in CHO cell line; type: cell-based; settings: Table 3; for EC50: CHO hGIPR cells; for GIP Receptor Relative Potency: against native GIP
T2 construct: expressed in transfected cells; host or cells: CHO
T2 sequence (P48546 22-466): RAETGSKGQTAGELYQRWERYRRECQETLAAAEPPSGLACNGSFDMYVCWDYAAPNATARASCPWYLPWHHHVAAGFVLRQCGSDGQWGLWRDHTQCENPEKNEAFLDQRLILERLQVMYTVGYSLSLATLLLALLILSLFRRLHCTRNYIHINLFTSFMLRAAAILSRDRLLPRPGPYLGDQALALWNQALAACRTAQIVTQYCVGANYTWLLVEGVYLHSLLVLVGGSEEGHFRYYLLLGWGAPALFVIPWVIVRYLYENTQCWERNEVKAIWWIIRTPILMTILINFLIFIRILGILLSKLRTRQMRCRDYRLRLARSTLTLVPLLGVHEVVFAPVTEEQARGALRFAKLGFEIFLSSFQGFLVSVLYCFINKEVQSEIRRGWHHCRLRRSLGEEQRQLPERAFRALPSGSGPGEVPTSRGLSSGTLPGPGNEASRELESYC

T1 sequence (P43220 24-463): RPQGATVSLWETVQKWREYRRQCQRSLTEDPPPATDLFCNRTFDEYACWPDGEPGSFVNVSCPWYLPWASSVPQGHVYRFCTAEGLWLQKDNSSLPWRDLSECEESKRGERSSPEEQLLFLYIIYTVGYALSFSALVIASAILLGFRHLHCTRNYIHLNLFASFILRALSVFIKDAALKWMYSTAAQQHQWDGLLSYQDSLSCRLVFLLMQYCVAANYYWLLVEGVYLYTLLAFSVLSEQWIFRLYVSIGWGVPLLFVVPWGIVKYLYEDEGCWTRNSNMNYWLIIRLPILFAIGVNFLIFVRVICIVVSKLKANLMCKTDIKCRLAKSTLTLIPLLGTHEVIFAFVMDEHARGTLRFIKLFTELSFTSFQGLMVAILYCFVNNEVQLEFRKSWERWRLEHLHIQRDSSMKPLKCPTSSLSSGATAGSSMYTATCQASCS

| Compound | EC50 [1] [nM] | GLP-1 Receptor Relative Potency [1] | EC50 [2] [nM] | GIP Receptor Relative Potency [2] |
| --- | --- | --- | --- | --- |
| CCCCCCCCCCCCCCCC(=O)NCCCC[C@H](NC(=O)[C@H](CO)NC(=O)[C@@H]1CCCN1C(=O)[C@@H]1CCCN1C(=O)[C@@H]1CCCN1C(=O)[C@H](C)NC(=O)CNC(=O)[C@H](CO)NC(=O)[C@H](CO)NC(=O)[C@@H]1CCCN1C(=O)CNC(=O)CNC(=O)[C@H](CCCCN)NC(=O)[C@@H](NC(=O)[C@H](CC(C)C)NC(=O)[C@H](Cc1c[nH]c2ccccc12)NC(=O)[C@H](CS)NC(=O)[C@@H](NC(=O)[C@H](Cc1ccccc1)NC(=O)[C@H](CCC(=O)O)NC(=O)[C@H](CCCNC(=N)N)NC(=O)[C@@H](NC(=O)[C@H](C)NC(=O)[C@H](CCC(=O)O)NC(=O)[C@H](CCCCN)NC(=O)[C@H](CCC(=O)O)NC(=O)[C@H](CCSC)NC(=O)[C@H](Cc1ccc(O)cc1)NC(=O)[C@@H](NC(=O)[C@H](CO)NC(=O)[C@H](Cc1ccc(O)cc1)NC(=O)[C@H](CC(=O)O)NC(=O)[C@H](CO)NC(=O)[C@@H](NC(=O)[C@H](Cc1ccccc1)NC(=O)[C@@H](NC(=O)CNC(=O)[C@H](CCC(=O)O)NC(=O)C(C)(C)NC(=O)[C@@H](N)Cc1ccc(O)cc1)[C@@H](C)O)[C@@H](C)O)[C@@H](C)CC)C(C)C)[C@@H](C)CC)C(C)C)C(N)=O [Compound 096] (H-Y[Aib]EGTFTSDYSIYMEKEAVREFICWLVKGGPSSGAPPPSK(Palmitoyl)-NH2) | 0.253 | 404.7 | 0.1 | 42 |
| CCCCCCCCCCCCCCCC(=O)NCCCC[C@H](NC(=O)[C@H](CO)NC(=O)[C@@H]1CCCN1C(=O)[C@@H]1CCCN1C(=O)[C@@H]1CCCN1C(=O)[C@H](C)NC(=O)CNC(=O)[C@H](CO)NC(=O)[C@H](CO)NC(=O)[C@@H]1CCCN1C(=O)CNC(=O)CNC(=O)[C@H](CCCCN)NC(=O)[C@@H](NC(=O)[C@H](CC(C)C)NC(=O)[C@H](Cc1c[nH]c2ccccc12)NC(=O)[C@@H]1CCC(=O)NCCCC[C@H](NC(=O)[C@@H](NC(=O)[C@H](C)NC(=O)[C@H](CCC(=O)O)NC(=O)[C@H](CCCCN)NC(=O)[C@H](CCC(=O)O)NC(=O)[C@H](CCSC)NC(=O)[C@H](Cc2ccc(O)cc2)NC(=O)[C@@H](NC(=O)[C@H](CO)NC(=O)[C@H](Cc2ccc(O)cc2)NC(=O)[C@H](CC(=O)O)NC(=O)[C@H](CO)NC(=O)[C@@H](NC(=O)[C@H](Cc2ccccc2)NC(=O)[C@@H](NC(=O)CNC(=O)[C@H](CCC(=O)O)NC(=O)C(C)(C)NC(=O)[C@@H](N)Cc2ccc(O)cc2)[C@@H](C)O)[C@@H](C)O)[C@@H](C)CC)C(C)C)C(=O)N[C@@H](CCC(=O)O)C(=O)N[C@@H](Cc2ccccc2)C(=O)N[C@@H]([C@@H](C)CC)C(=O)N1)C(C)C)C(N)=O [Compound 101] (H-Y[Aib]EGTFTSDYSIYMEKEAVKEFIEWLVKGGPSSGAPPPSK(Palmitoyl)-NH2; lactam 20-24) | 0.056 | 628.6 | 0.021 | 328.6 |
| CCCCCCCCCCCCCCCC(=O)NCCCC[C@H](NC(=O)[C@H](CO)NC(=O)[C@@H]1CCCN1C(=O)[C@@H]1CCCN1C(=O)[C@@H]1CCCN1C(=O)[C@H](C)NC(=O)CNC(=O)[C@H](CO)NC(=O)[C@H](CO)NC(=O)[C@@H]1CCCN1C(=O)CNC(=O)CNC(=O)[C@@H]1CCCCNC(=O)CC[C@H](NC(=O)[C@@H](NC(=O)[C@H](Cc2ccccc2)NC(=O)[C@H](CCC(=O)O)NC(=O)[C@H](CCCCN)NC(=O)[C@@H](NC(=O)[C@H](C)NC(=O)[C@H](CCC(=O)O)NC(=O)[C@H](CCCCN)NC(=O)[C@H](CCC(=O)O)NC(=O)[C@H](CCSC)NC(=O)[C@H](Cc2ccc(O)cc2)NC(=O)[C@@H](NC(=O)[C@H](CO)NC(=O)[C@H](Cc2ccc(O)cc2)NC(=O)[C@H](CC(=O)O)NC(=O)[C@H](CO)NC(=O)[C@@H](NC(=O)[C@H](Cc2ccccc2)NC(=O)[C@@H](NC(=O)CNC(=O)[C@H](CCC(=O)O)NC(=O)C(C)(C)NC(=O)[C@@H](N)Cc2ccc(O)cc2)[C@@H](C)O)[C@@H](C)O)[C@@H](C)CC)C(C)C)[C@@H](C)CC)C(=O)N[C@@H](Cc2c[nH]c3ccccc23)C(=O)N[C@@H](CC(C)C)C(=O)N[C@@H](C(C)C)C(=O)N1)C(N)=O [Compound 102] (H-Y[Aib]EGTFTSDYSIYMEKEAVKEFIEWLVKGGPSSGAPPPSK(Palmitoyl)-NH2; lactam 24-28; N-terminus assumed) | 0.069 | 510.1 | 0.015 | 460 |
| CC[C@H](C)[C@H](NC(=O)[C@H](CO)NC(=O)[C@H](Cc1ccc(O)cc1)NC(=O)[C@H](CC(=O)O)NC(=O)[C@H](CO)NC(=O)[C@@H](NC(=O)[C@H](Cc1ccccc1)NC(=O)[C@@H](NC(=O)CNC(=O)[C@H](CCC(=O)O)NC(=O)C(C)(C)NC(=O)[C@@H](N)Cc1ccc(O)cc1)[C@@H](C)O)[C@@H](C)O)C(=O)N[C@@H](Cc1ccc(O)cc1)C(=O)N[C@@H](CCSC)C(=O)N[C@@H](CCC(=O)O)C(=O)N[C@@H](CCCCN)C(=O)N[C@@H](CCC(=O)O)C(=O)N[C@@H](C)C(=O)N[C@H](C(=O)N[C@@H](CCCNC(=N)N)C(=O)N[C@@H](CCC(=O)O)C(=O)N[C@@H](Cc1ccccc1)C(=O)N[C@H](C(=O)N[C@@H](CS)C(=O)N[C@@H](Cc1c[nH]c2ccccc12)C(=O)N[C@@H](CC(C)C)C(=O)N[C@H](C(=O)N[C@@H](CCCCN)C(=O)NCC(=O)NCC(=O)N1CCC[C@H]1C(=O)N[C@@H](CO)C(=O)N[C@@H](CO)C(=O)NCC(=O)N[C@@H](C)C(=O)N1CCC[C@H]1C(=O)N1CCC[C@H]1C(=O)N1CCC[C@H]1C(=O)N[C@@H](CO)C(=O)N[C@@H](CCCCN)C(N)=O)C(C)C)[C@@H](C)CC)C(C)C [Compound 105] (H-Y[Aib]EGTFTSDYSIYMEKEAVREFICWLVKGGPSSGAPPPSK-NH2; N-terminus assumed) | 3.94 | – | 0.4 | – |
| CC[C@H](C)[C@H](NC(=O)[C@H](Cc1ccccc1)NC(=O)[C@H](CCC(=O)O)NC(=O)[C@H](CCCNC(=N)N)NC(=O)[C@@H](NC(=O)[C@H](C)NC(=O)[C@H](CCC(=O)O)NC(=O)[C@H](CCCCN)NC(=O)[C@H](CCC(=O)O)NC(=O)[C@H](CCSC)NC(=O)[C@H](Cc1ccc(O)cc1)NC(=O)[C@@H](NC(=O)[C@H](CO)NC(=O)[C@H](Cc1ccc(O)cc1)NC(=O)[C@H](CC(=O)O)NC(=O)[C@H](CO)NC(=O)[C@@H](NC(=O)[C@H](Cc1ccccc1)NC(=O)[C@@H](NC(=O)CNC(=O)[C@H](CCC(=O)O)NC(=O)C(C)(C)NC(=O)[C@@H](N)Cc1ccc(O)cc1)[C@@H](C)O)[C@@H](C)O)[C@@H](C)CC)C(C)C)C(=O)N[C@@H](C)C(=O)N[C@@H](Cc1c[nH]c2ccccc12)C(=O)N[C@@H](CC(C)C)C(=O)N[C@H](C(=O)N[C@@H](CCCCN)C(=O)NCC(=O)NCC(=O)N1CCC[C@H]1C(=O)N[C@@H](CO)C(=O)N[C@@H](CO)C(=O)NCC(=O)N[C@@H](C)C(=O)N1CCC[C@H]1C(=O)N1CCC[C@H]1C(=O)N1CCC[C@H]1C(=O)N[C@@H](CO)C(=O)N[C@@H](CCCCNC(=O)CCCCCCCCCCCCCCC(=O)O)C(N)=O)C(C)C [Compound 106] | 0.922 | 157.8 | 0.097 | 67.0 |
| CCCCCCCCCCCCCCCC(=O)NCCCC[C@H](NC(=O)[C@H](CO)NC(=O)[C@@H]1CCCN1C(=O)[C@@H]1CCCN1C(=O)[C@@H]1CCCN1C(=O)[C@H](C)NC(=O)CNC(=O)[C@H](CO)NC(=O)[C@H](CO)NC(=O)[C@@H]1CCCN1C(=O)CNC(=O)CNC(=O)[C@H](CCCCN)NC(=O)[C@@H](NC(=O)[C@H](CC(C)C)NC(=O)[C@H](Cc1c[nH]c2ccccc12)NC(=O)[C@H](C)NC(=O)[C@@H](NC(=O)[C@H](Cc1ccccc1)NC(=O)[C@H](CCC(=O)O)NC(=O)[C@H](CCCNC(=N)N)NC(=O)[C@@H](NC(=O)[C@H](C)NC(=O)[C@H](CCC(=O)O)NC(=O)[C@H](CCCCN)NC(=O)[C@H](CCC(=O)O)NC(=O)[C@H](CCSC)NC(=O)[C@H](Cc1ccc(O)cc1)NC(=O)[C@@H](NC(=O)[C@H](CO)NC(=O)[C@H](Cc1ccc(O)cc1)NC(=O)[C@H](CC(=O)O)NC(=O)[C@H](CO)NC(=O)[C@@H](NC(=O)[C@H](Cc1ccccc1)NC(=O)[C@@H](NC(=O)CNC(=O)[C@H](CCC(N)=O)NC(=O)C(C)(C)NC(=O)[C@@H](N)Cc1ccc(O)cc1)[C@@H](C)O)[C@@H](C)O)[C@@H](C)CC)C(C)C)[C@@H](C)CC)C(C)C)C(N)=O [Compound 120] (H-Y[Aib]QGTFTSDYSIYMEKEAVREFIAWLVKGGPSSGAPPPSK(Palmitoyl)-NH2) | 0.253 | 586.6 | 0.039 | 294.9 |
